Results: patent EP4763839A1 (Pamplona Therapeutics (Shenzhen) Co., Ltd., priority 2023, dated 2025)
Structures can show the parent of a compound that is named as a salt.

Target: T1, IRAK4 (Homo sapiens, UniProt Q9NWZ3)
T1 sequence (Q9NWZ3 1-460): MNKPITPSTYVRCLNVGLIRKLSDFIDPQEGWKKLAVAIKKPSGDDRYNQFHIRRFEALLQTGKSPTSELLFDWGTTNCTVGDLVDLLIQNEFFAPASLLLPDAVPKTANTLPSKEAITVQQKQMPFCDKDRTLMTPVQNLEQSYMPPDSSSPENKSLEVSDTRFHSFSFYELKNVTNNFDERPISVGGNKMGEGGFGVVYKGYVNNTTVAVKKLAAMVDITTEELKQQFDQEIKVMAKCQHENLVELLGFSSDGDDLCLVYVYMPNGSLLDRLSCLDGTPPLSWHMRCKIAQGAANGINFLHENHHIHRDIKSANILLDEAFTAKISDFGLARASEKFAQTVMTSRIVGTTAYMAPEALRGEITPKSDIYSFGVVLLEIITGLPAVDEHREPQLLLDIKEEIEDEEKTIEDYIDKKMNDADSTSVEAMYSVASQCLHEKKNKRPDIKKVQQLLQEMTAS
Experiment: Degradation of IRAK4 in THP1 cells, Western blot
Type: cell-based
Parameters: Degradation of IRAK4 in THP1 by compound; host or cells: THP-1
Conditions: THP-1 cells, 24 hours of incubation; for DC50: IRAK4 protein by Western blot, read-out: DC50; for Dmax: maximum degradation rate, read-out: Dmax
Outline: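 THP1 cells treated 24 h, lysed; lysates normalised by BCA, 40 μg protein per lane on 10% SDS-PAGE, anti-IRAK4 Western blot with chemiluminescence detection.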

DC50 [µM]	Dmax [%]	SMILES
< 0.1	> 60	NC(=O)c1nn(-c2ccc(N3CCN(C4CCN(c5ccc(C(=O)NC6CCC(=O)NC6=O)cc5F)CC4)CC3)cc2)cc1NC(=O)c1cccc(C(F)(F)F)n1 (stereo not shown) [Compound A378, 1-(4-{4-[1-(4-{[(2,6-Dioxopiperidin-3-yl)amino]carbonyl}-2-fluorophenyl)piperidin-4-yl]piperazin-1-yl}phenyl)-4-({[6-(trifluoromethyl)pyridin-2-yl]carbonyl}amino)pyrazole-3-carboxamide]
< 0.1	> 60	NC(=O)c1nn(-c2ccc(N3CCN(C4CCN(c5ccc(C(=O)NC6CCC(=O)NC6=O)nc5)CC4)CC3)cc2)cc1NC(=O)c1cccc(C(F)(F)F)n1 (stereo not shown) [Compound A379, N-(3-Carbamoyl-1-(4-(4-(1-(6-((2,6-dioxopiperidin-3-yl)carbamoyl)pyridin-3-yl)piperidin-4-yl)piperazin-1-yl)phenyl)-1H-pyrazol-4-yl)-6-(trifluoromethyl)picolinamide]
> 1	< 40	N#Cc1cccc(C(=O)Nc2cn(-c3ccc(N4CCN(CC5CCN(c6ccc(NC7CCC(=O)NC7=O)cc6F)CC5)CC4)cc3)nc2C(N)=O)n1 (stereo not shown) [Compound A384, N-(3-Carbamoyl-1-(4-(4-((1-(4-((2,6-dioxopiperidin-3-yl)amino)-2-fluorophenyl)piperidin-4-yl)methyl)piperazin-1-yl)phenyl)-1H-pyrazol-4-yl)-6-cyanopicolinamide]
> 1	< 40	CC(C)(O)c1nn(-c2ccc(N3CCN(CC4CCN(c5ccc(NC6CCC(=O)NC6=O)cc5F)CC4)CC3)cc2)cc1NC(=O)c1cncc(C#N)c1 (stereo not shown) [Compound A385, 5-Cyano-N-(1-(4-(4-((1-(4-((2,6-dioxopiperidin-3-yl)amino)-2-fluorophenyl)piperidin-4-yl)methyl)piperazin-1-yl)phenyl)-3-(2-hydroxypropan-2-yl)-1H-pyrazol-4-yl)nicotinamide]
> 1	< 40	CC(C)(O)c1nn(-c2ccc(N3CCN(CC4CCN(c5ccc(NC6CCC(=O)NC6=O)cc5F)CC4)CC3)cc2)cc1NC(=O)c1cccc(C#N)n1 (stereo not shown) [Compound A386, 6-Cyano-N-(1-(4-(4-((1-(4-((2,6-dioxopiperidin-3-yl)amino)-2-fluorophenyl)piperidin-4-yl)methyl)piperazin-1-yl)phenyl)-3-(2-hydroxypropan-2-yl)-1H-pyrazol-4-yl)picolinamide]
> 1	< 40	N#Cc1ccnc(C(=O)Nc2cn(-c3ccc(N4CCN(C5CCN(c6ccc(NC7CCC(=O)NC7=O)cc6F)CC5)CC4)cc3)nc2C(N)=O)c1 (stereo not shown) [Compound A387, N-(3-Carbamoyl-1-(4-(4-(1-(4-((2,6-Dioxopiperidin-3-yl)amino)-2-fluorophenyl)piperidin-4-yl)piperazin-1-yl)phenyl)-1H-pyrazol-4-yl)-4-cyanopicolinamide]
> 1	< 40	N#Cc1cccc(C(=O)Nc2cn(-c3ccc(N4CCN(C5CCN(c6ccc(NC7CCC(=O)NC7=O)cc6F)CC5)CC4)cc3)nc2C(N)=O)n1 (stereo not shown) [Compound A388, N-(3-Carbamoyl-1-(4-(4-(1-(4-((2,6-Dioxopiperidin-3-yl)amino)-2-fluorophenyl)piperidin-4-yl)piperazin-1-yl)phenyl)-1H-pyrazol-4-yl)-6-cyanopicolinamide]
> 1	< 40	CC(C)(O)c1nn(-c2ccc(N3CCN(C4CCN(c5ccc(NC6CCC(=O)NC6=O)cc5F)CC4)CC3)cc2)cc1NC(=O)c1cncc(C#N)c1 (stereo not shown) [Compound A389, 5-Cyano-N-(1-(4-(4-(1-(4-((2,6-dioxopiperidin-3-yl)amino)-2-fluorophenyl)piperidin-4-yl)piperazin-1-yl)phenyl)-3-(2-hydroxypropan-2-yl)-1H-pyrazol-4-yl)nicotinamide]
< 0.1	> 60	NC(=O)c1nn(-c2ccc(N3CCN(C4CCC5(CC4)CN(c4ccc(N6CCC(=O)NC6=O)cc4)C5)CC3)cc2)cc1NC(=O)c1cccc(C(F)(F)F)n1 [Compound A391, N-(3-Carbamoyl-1-(4-(4-(2-(4-(2,4-dioxotetrahydropyrimidin-1(2H)-yl)phenyl)-2-azaspiro[3.5]nonan-7-yl)piperazin-1-yl)phenyl)-1H-pyrazol-4-yl)-6-(trifluoromethyl)picolinamide]
0.1 to 1	40 to 60	NC(=O)c1nn(-c2ccc(N3CCN(CC4CC5(CCN(c6ccc(N7CCC(=O)NC7=O)cc6)CC5)C4)CC3)cc2)cc1NC(=O)c1cccc(C(F)(F)F)n1 [Compound A392, N-(3-Carbamoyl-1-(4-(4-((7-(4-(2,4-dioxotetrahydropyrimidin-1(2H)-yl)phenyl)-7-azaspiro[3.5]nonan-2-yl)methyl)piperazin-1-yl)phenyl)-1H-pyrazol-4-yl)-6-(trifluoromethyl)picolinamide]
0.1 to 1	40 to 60	NC(=O)c1nn(-c2ccc(N3CCN(C(=O)C4CC5(CCN(c6ccc(N7CCC(=O)NC7=O)cc6)CC5)C4)CC3)cc2)cc1NC(=O)c1cccc(C(F)(F)F)n1 [Compound A394, N-(3-Carbamoyl-1-(4-(4-(7-(4-(2,4-dioxotetrahydropyrimidin-1(2H)-yl)phenyl)-7-azaspiro[3.5]nonane-2-carbonyl)piperazin-1-yl)phenyl)-1H-pyrazol-4-yl)-6-(trifluoromethyl)picolinamide]
< 0.1	> 60	NC(=O)c1nn(-c2ccc(N3CCN(CC4CCN(c5ccc(NC6CCC(=O)NC6=O)cn5)CC4)CC3)cc2)cc1NC(=O)c1cccc(C(F)(F)F)n1 (stereo not shown) [Compound A396, N-(3-Carbamoyl-1-(4-(4-((1-(5-((2,6-dioxopiperidin-3-yl)amino)pyridin-2-yl)piperidin-4-yl)methyl)piperazin-1-yl)phenyl)-1H-pyrazol-4-yl)-6-(trifluoromethyl)picolinamide]
< 0.1	> 60	NC(=O)c1nn(-c2ccc(N3CCN(CCC4CCN(C(=O)c5ccc(F)c(N6CCC(=O)NC6=O)c5)CC4)CC3)cc2)cc1NC(=O)c1cccc(C(F)(F)F)n1 [Compound A402, N-(3-Carbamoyl-1-(4-(4-(2-(1-(3-(2,4-dioxotetrahydropyrimidin-1(2H)-yl)-4-fluorobenzoyl)piperidin-4-yl)ethyl)piperazin-1-yl)phenyl)-1H-pyrazol-4-yl)-6-(trifluoromethyl)picolinamide trifluoroacetate]
< 0.1	> 60	NC(=O)c1nn(-c2ccc(N3CCN(C(=O)C4CN(c5ccc(N6CCC(=O)NC6=O)cc5)C4)CC3)cc2)cc1NC(=O)c1cccc(C(F)(F)F)n1 [Compound A409, N-(3-Carbamoyl-1-(4-(4-(1-(4-(2,4-dioxotetrahydropyrimidin-1(2H)-yl)phenyl)azetidine-3-carbonyl)piperazin-1-yl)phenyl)-1H-pyrazol-4-yl)-6-(trifluoromethyl)picolinamide]
< 0.1	> 60	NC(=O)c1nn(-c2ccc(N3CCN(C(=O)C4CN(c5cc(F)c(C6CCC(=O)NC6=O)c(F)c5)C4)CC3)cc2)cc1NC(=O)c1cccc(C(F)(F)F)n1 (stereo not shown) [Compound A411, N-(3-carbamoyl-1-(4-(4-(1-(4-(2,6-dioxopiperidin-3-yl)-3,5-difluorophenyl)azetidine-3-carbonyl)piperazin-1-yl)phenyl)-1H-pyrazol-4-yl)-6-(trifluoromethyl)picolinamide]
< 0.1	> 60	NC(=O)c1nn(-c2ccc(N3CCN(C(=O)C4CCN(c5ccc(OC6CCC(=O)NC6=O)cn5)CC4)CC3)cc2)cc1NC(=O)c1cccc(C(F)(F)F)n1 (stereo not shown) [Compound A415, N-(3-Carbamoyl-1-(4-(4-(1-(5-((2,6-dioxopiperidin-3-yl)oxy)pyridin-2-yl)piperidine-4-carbonyl)piperazin-1-yl)phenyl)-1H-pyrazol-4-yl)-6-(trifluoromethyl)picolinamide]
< 0.1	> 60	NC(=O)c1nn(-c2ccc(N3CCN(CC4CCN(c5ccc(OC6CCC(=O)NC6=O)cc5F)CC4)CC3)cc2)cc1NC(=O)c1cccc(C(F)(F)F)n1 (stereo not shown) [Compound A421, N-(3-Carbamoyl-1-(4-(4-((1-(4-((2,6-dioxopiperidin-3-yl)oxy)-2-fluorophenyl)piperidin-4-yl)methyl)piperazin-1-yl)phenyl)-1H-pyrazol-4-yl)-6-(trifluoromethyl)picolinamide]

SMILES	DC50 [µM]	Dmax [%]
Cn1c(=O)n(C2CCC(=O)NC2=O)c2cccc(N3CCC(CN4CCN(C5CCC(n6cc(NC(=O)c7cccc(C(F)(F)F)n7)c(C(N)=O)n6)CC5)CC4)CC3)c21 (stereo not shown) [Compound A380]	< 0.1	> 60
NC(=O)c1nn([C@H]2CC[C@H](N3CCN(CC4CN(c5ccc(N6CCC(=O)NC6=O)cc5)C4)CC3)CC2)cc1NC(=O)c1cccc(C(F)(F)F)n1 [Compound A403, N-(3-Carbamoyl-1-((1r,4r)-4-(4-((1-(4-(2,4-dioxotetrahydropyrimidin-1(2H)-yl)phenyl)azetidin-3-yl)methyl)piperazin-1-yl)cyclohexyl)-1H-pyrazol-4-yl)-6-(trifluoromethyl)picolinamide]	< 0.1	40 to 60
NC(=O)c1nn(-c2ccc(N3CCN(C(=O)C4CCN(c5cc(F)c(C6CCC(=O)NC6=O)c(F)c5)C4)CC3)cc2)cc1NC(=O)c1cccc(C(F)(F)F)n1 (stereo not shown) [Compound A414]	< 0.1	> 60
